The subject of one assay is Human venous whole blood. Put plainly: Human whole blood IFN-γ assay.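 Further: blood from healthy donors exposed to compound for 1 h before stimulation with anti-CD3 and anti-CD28 at 1 µg/mL each, IFN-γ quantified in supernatant by AlphaLISA.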 The conditions noted are these: human whole blood, read-out: INFg Whole Blood Normalized Agonist EC50. The format is cell-based.
For a further assay, the target named is T1, human DGKα (Homo sapiens, UniProt P23743).
T1 construct: TVMV protease cleavage site (C); Hexa-His (C); made in house; host or cells: Sf9 insect cells (baculovirus, Bac-to-Bac)
Put plainly: DGKα LIPGLO assay (extruded liposome substrate), in vitro DGK inhibition. The conditions noted are these: read-out: DGKa LIPGLO IC50. The format is biochemical.

In the next assay the target is T2, human DGKζ (Homo sapiens, UniProt Q13574).
T2 construct: TVMV protease cleavage site (C); Hexa-His (C); made in house; host or cells: Sf9 insect cells (baculovirus, Bac-to-Bac)
Put plainly: DGKζ LIPGLO assay (extruded liposome substrate), in vitro DGK inhibition. The format is biochemical. The conditions noted are these: read-out: DGKz LIPGLO IC50.

Setting [1] is: anti-CD3 plus anti-CD28, 24 hours, 3 μM reference compound = 100% activation.
[2] abbreviates: Homo sapiens, 24 h, normalized to 3 μM reference compound with anti-CD3 plus anti-CD28 as 100% activation.
[3] abbreviates: Homo sapiens, 24 h, anti-CD3 plus anti-CD28, 24 hours, 3 μM reference compound = 100% activation.
[4] abbreviates: normalized to 3 μM reference compound with anti-CD3 plus anti-CD28 as 100% activation.

Each structure is given as a SMILES string. Where two headings read alike, the source gives them in different places.

T2 sequence (Q13574 with tags, fused parts or gaps isoform Q13574-4): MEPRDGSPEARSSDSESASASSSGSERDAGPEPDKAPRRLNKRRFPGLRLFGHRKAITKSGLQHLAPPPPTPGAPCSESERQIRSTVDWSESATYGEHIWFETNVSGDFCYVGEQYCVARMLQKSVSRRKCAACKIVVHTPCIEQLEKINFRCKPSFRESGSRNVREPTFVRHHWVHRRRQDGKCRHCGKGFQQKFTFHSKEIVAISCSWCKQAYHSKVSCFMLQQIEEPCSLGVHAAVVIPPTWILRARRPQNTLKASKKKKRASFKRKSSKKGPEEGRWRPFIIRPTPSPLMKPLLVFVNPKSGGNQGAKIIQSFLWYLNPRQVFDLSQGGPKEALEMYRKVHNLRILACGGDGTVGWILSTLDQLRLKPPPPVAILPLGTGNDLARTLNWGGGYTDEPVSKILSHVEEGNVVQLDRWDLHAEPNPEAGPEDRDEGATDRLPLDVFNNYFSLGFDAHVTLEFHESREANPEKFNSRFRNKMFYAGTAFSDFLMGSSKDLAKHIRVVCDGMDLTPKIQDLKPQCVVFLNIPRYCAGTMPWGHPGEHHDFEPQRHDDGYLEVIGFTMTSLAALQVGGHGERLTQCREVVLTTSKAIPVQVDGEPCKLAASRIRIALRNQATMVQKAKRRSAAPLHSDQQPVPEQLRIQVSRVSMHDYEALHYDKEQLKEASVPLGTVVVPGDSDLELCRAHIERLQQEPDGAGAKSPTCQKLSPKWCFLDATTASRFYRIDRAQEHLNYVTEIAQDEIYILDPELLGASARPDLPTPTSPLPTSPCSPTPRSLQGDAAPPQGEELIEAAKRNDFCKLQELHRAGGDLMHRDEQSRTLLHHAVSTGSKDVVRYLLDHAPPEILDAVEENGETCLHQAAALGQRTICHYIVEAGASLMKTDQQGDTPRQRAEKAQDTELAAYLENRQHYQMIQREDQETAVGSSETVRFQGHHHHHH
T1 sequence (P23743 with tags, fused parts or gaps): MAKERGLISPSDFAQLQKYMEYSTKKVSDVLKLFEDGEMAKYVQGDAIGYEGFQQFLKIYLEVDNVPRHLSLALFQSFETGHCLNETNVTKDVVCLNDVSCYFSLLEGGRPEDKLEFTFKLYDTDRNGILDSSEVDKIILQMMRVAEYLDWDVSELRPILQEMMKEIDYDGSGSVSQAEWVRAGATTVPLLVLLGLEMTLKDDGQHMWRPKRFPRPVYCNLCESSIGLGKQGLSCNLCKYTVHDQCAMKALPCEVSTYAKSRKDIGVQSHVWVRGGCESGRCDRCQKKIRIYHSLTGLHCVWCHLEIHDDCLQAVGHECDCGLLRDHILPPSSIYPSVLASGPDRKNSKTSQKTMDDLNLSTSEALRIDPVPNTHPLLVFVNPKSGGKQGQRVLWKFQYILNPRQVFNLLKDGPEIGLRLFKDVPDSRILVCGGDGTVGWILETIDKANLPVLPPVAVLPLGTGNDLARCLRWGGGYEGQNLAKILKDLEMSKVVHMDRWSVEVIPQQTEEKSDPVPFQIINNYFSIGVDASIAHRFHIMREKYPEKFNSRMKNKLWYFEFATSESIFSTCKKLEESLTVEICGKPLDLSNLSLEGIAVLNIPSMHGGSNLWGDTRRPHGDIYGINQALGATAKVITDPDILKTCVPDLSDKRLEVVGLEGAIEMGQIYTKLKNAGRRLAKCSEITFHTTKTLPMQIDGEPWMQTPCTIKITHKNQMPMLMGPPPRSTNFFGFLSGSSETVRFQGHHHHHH
Procedure for Human venous whole blood: Human Whole Blood IFN-γ Assay
Human venous whole blood (22.5 μL per well), obtained from healthy donors, was pre-treated with compounds for one hour at 37° C. in a humidified 95% air/5% CO2 incubator. The blood was stimulated with 2.5 μL anti-human CD3 and anti-CD28 mAb at a final concentration of 1 μg/mL each for 24 hours at 37° C. IFN-γ in the supernatants was measured using AlphLISA kit (Cat # AL217).

By EC50 is commonly meant the concentration needed to bring the measured effect to its halfway point. In general, IC50 refers to the concentration that gives 50% inhibition. Consider `C[C@@H]1CN(c2c(C#N)c(=O)n(C)c3ccc(C#N)nc23)[C@@H](C)CN1C(c1ccc(Cl)cc1)c1ccc(F)cn1` (single isomer, unassigned) [Example 830], for which the EC50 in the assay with Human venous whole blood (setting [1]) came to 1900 nM. The IC50 at human DGKα (DGKα liposome (LIPGLO) assay) is 1500 nM; at human DGKζ (DGKζ liposome (LIPGLO) assay) it was 9600 nM.
Consider `C[C@@H]1CN(c2cc(=O)n(C)c3ccc(C#N)nc23)[C@@H](C)CN1C(c1ccc(Cl)cc1)c1ccncn1` (single isomer, unassigned) [Example 396], for which the EC50 with Human venous whole blood (setting [2]) was found to be 190 nM. The IC50 at human DGKα (liposome (LIPGLO) assay) came out at 1300 nM; on human DGKζ (liposome (LIPGLO) assay), 3600 nM.
With `C[C@@H]1CN(c2cc(=O)n(C)c3ccc(C#N)nc23)[C@@H](C)CN1C(c1ccc(F)cc1)c1cc(C(C)(C)C)on1` (single isomer, unassigned) [Example 731], in the assay with Human venous whole blood (setting [1]), the EC50 is 950 nM. Besides, the IC50 came to 8500 nM at human DGKα (DGKα liposome (LIPGLO) assay) and 330 nM at human DGKζ (DGKζ liposome (LIPGLO) assay).
As to `CCC(c1ccc(OCC2CC2)cc1)N1C[C@H](C)N(c2cc(=O)n(C)c3ccc(C#N)nc23)C[C@H]1C` (single isomer, unassigned) [Example 1440], the EC50 in the assay with Human venous whole blood (setting [2]) turned out to be 2100 nM. Also, the IC50 on human DGKα (liposome (LIPGLO) assay) is 1600 nM; at human DGKζ (liposome (LIPGLO) assay), 1100 nM.
The corresponding values for `CC[C@H]1CN(C(C)c2ccc(C3CC3)cc2F)[C@H](CC)CN1c1cc(=O)n(C)c2ccc(C#N)nc12` (single isomer, unassigned) [Example 1358] are 1200 nM, 1700 nM and 680 nM.
With `C[C@@H]1CN(c2c(C#N)c(=O)n(C)c3ccc(C#N)nc23)CCN1C(c1ccc(Cl)cc1)c1ccc(Cl)cn1` (stereo partly drawn) [Example 930], the EC50 with Human venous whole blood (setting [3]) came to 1300 nM. Also, the IC50 on human DGKα (DGKα liposome (LIPGLO) assay) amounted to 640 nM; at human DGKζ (DGKζ liposome (LIPGLO) assay), 1300 nM.
Take `COC[C@@H]1CN(c2cc(=O)n(C)c3ccc(C#N)nc23)[C@@H](C)CN1C(c1ccc(F)cc1)c1nc(C2CC2)no1` (single isomer, unassigned) [Example 1394]: in the assay on Human venous whole blood (setting [2]), the concentration giving a half-maximal response (EC50) was 450 nM. The IC50 at human DGKα (liposome (LIPGLO) assay) is 53 nM; at human DGKζ (liposome (LIPGLO) assay), 37 nM.
As to `Cc1ccc(C(c2ccc(F)cc2)N2CCN(c3c(C#N)c(=O)n(C)c4ccc(C#N)nc34)C[C@H]2C)cc1` (stereo partly drawn) [Example 888], the EC50 with Human venous whole blood (setting [3]) was 1200 nM. The IC50 is 510 nM on human DGKα (DGKα liposome (LIPGLO) assay) and 330 nM on human DGKζ (DGKζ liposome (LIPGLO) assay).
As to `CCc1ccc(C(c2ccc(F)cc2)N2CCN(c3c(C#N)c(=O)n(C)c4ccc(C#N)nc34)C[C@H]2C)cc1` (stereo partly drawn) [Example 885], the EC50 in the assay on Human venous whole blood (setting [1]) is 2400 nM. For the same molecule, the values for the IC50 at human DGKα (DGKα liposome (LIPGLO) assay) and on human DGKζ (DGKζ liposome (LIPGLO) assay) were 3000 nM and 1200 nM, respectively.
Take `C[C@@H]1CN(c2cc(=O)n(C)c3ccc(C#N)nc23)[C@@H](C)CN1C(c1ccc(F)cc1)c1cnn(C)c1` (single isomer, unassigned) [Example 702]: the EC50 in the assay on Human venous whole blood (setting [4]) stood at 4700 nM. For the same molecule, the IC50 on human DGKα (liposome (LIPGLO) assay) came out at 1300 nM; at human DGKζ (liposome (LIPGLO) assay), 2900 nM.
Take `CC[C@H]1CN(C(c2cccc(F)c2)c2ccc(C)cn2)[C@H](C)CN1c1cc(=O)n(C)c2ccc(C#N)nc12` (single isomer, unassigned) [Example 1125]: the EC50 with Human venous whole blood (setting [4]) came to 170 nM. Also, the IC50 on human DGKα (liposome (LIPGLO) assay) came out at 360 nM; on human DGKζ (liposome (LIPGLO) assay), 1500 nM.
`C[C@@H]1CN(c2c(C#N)c(=O)n(C)c3ccc(C#N)nc23)CCN1C(c1ccc(Cl)cc1)c1ccncn1` (single isomer, unassigned) [Example 319]: the EC50 in the assay on Human venous whole blood (setting [2]) was determined as 1600 nM. For the same molecule, the IC50 at human DGKα (liposome (LIPGLO) assay) came out at 2200 nM; at human DGKζ (liposome (LIPGLO) assay), 6600 nM.
The corresponding values for `CC[C@@H]1CN(c2cc(=O)n(C)c3ccc(C#N)nc23)[C@@H](C)CN1Cc1ccc(OC(F)F)cc1` [Example 1330, 8-((2S,5R)-4-(4-(difluoromethoxy)benzyl)-5-ethyl-2-methylpiperazin-1-yl)-5-methyl-6-oxo-5,6-dihydro-1,5-naphthyridine-2-carbonitrile] are 1500 nM, 44 nM and 380 nM.
The corresponding values for `Cc1ccc(C(c2cccc(Cl)c2)N2C[C@H](C)N(c3cc(=O)n(C)c4ccc(C#N)nc34)C[C@H]2C)nc1` (stereo partly drawn) [Example 398, 8-((2S,5R)-4-((3-chlorophenyl)(5-methylpyridin-2-yl)methyl)-2,5-dimethylpiperazin-1-yl)-5-methyl-6-oxo-5,6-dihydro-1,5-naphthyridine-2-carbonitrile] are 410 nM, 1100 nM and 1400 nM.
Consider `C[C@@H]1CN(c2cc(=O)n(C)c3ccc(C#N)nc23)[C@@H](C)CN1C(c1ccc(F)cc1)c1c(F)cc(F)cc1F` (single isomer, unassigned) [Example 692], for which, in the assay on Human venous whole blood (setting [4]), the EC50 amounted to 680 nM. Also, the concentration for half-maximal inhibition (IC50) was found to be 810 nM at human DGKα (liposome (LIPGLO) assay) and 2500 nM at human DGKζ (liposome (LIPGLO) assay).
Take `CCC(c1ccc(OC(F)(F)F)cc1)N1C[C@H](C)N(c2cc(=O)n(C)c3ccc(C#N)nc23)C[C@H]1CC` (single isomer, unassigned) [Example 1198]: the EC50 in the assay with Human venous whole blood (setting [4]) worked out at 1700 nM. Moreover, the results for the IC50 on human DGKα (liposome (LIPGLO) assay) and on human DGKζ (liposome (LIPGLO) assay) were 990 nM and 1100 nM, respectively.
On to `C[C@@H]1CN(c2c(C#N)c(=O)n(C)c3ccc(C#N)nc23)CCN1C(c1ccc(F)cc1)c1ccc(F)cc1F` (single isomer, unassigned) [Example 947], for which the EC50 in the assay on Human venous whole blood (setting [3]) turned out to be 340 nM. Further, the IC50 at human DGKα (DGKα liposome (LIPGLO) assay) worked out at 2000 nM; at human DGKζ (DGKζ liposome (LIPGLO) assay), 270 nM.
On to `CC(c1ccc(OC(F)(F)F)cc1)N1C[C@H](C)N(c2c(C#N)c(=O)n(C)c3ccc(C#N)nc23)C[C@H]1C` (single isomer, unassigned) [Example 802], for which the EC50 with Human venous whole blood (setting [1]) came to 10000 nM. Also, the IC50 at human DGKα (DGKα liposome (LIPGLO) assay) was 1300 nM; on human DGKζ (DGKζ liposome (LIPGLO) assay) it was 24000 nM.
For the molecule `C[C@@H]1CN(c2cc(=O)n(C)c3ccc(C#N)nc23)[C@@H](C)CN1C(c1ccc(F)cc1)c1csc(C(F)(F)F)n1` (single isomer, unassigned) [Example 1333], the EC50 in the assay on Human venous whole blood (setting [2]) was found to be 310 nM. Moreover, the IC50 at human DGKα (liposome (LIPGLO) assay) was 370 nM; at human DGKζ (liposome (LIPGLO) assay), 160 nM.
For `CC[C@@H]1CN(c2cc(=O)n(C)c3ccc(C#N)nc23)[C@@H](C)CN1C(C)c1ccc(OC(C)C)cc1` (single isomer, unassigned) [Example 1349], the EC50 in the assay with Human venous whole blood (setting [4]) was 580 nM. Also, the figures for the IC50 on human DGKα (liposome (LIPGLO) assay) and on human DGKζ (liposome (LIPGLO) assay) were 5400 nM and 2200 nM, respectively.
On to `COC[C@@H]1CN(c2cc(=O)n(C)c3ccc(C#N)nc23)[C@@H](C)CN1C(c1ccc(F)cc1)c1ccc(C(F)(F)F)cn1` (stereo partly drawn) [Example 1402], for which, in the assay on Human venous whole blood (setting [4]), the EC50 was 260 nM. The IC50 at human DGKα (liposome (LIPGLO) assay) is 300 nM; on human DGKζ (liposome (LIPGLO) assay) it was 100 nM.
Consider `CCc1ccc(C(c2ccc(F)cc2)N2CCN(c3c(C#N)c(=O)n(C)c4ccc(C#N)nc34)C[C@H]2C)cc1` (stereo partly drawn) [Example 884], for which the EC50 in the assay on Human venous whole blood (setting [3]) was found to be 2200 nM. Further, the IC50 was 4600 nM on human DGKα (DGKα liposome (LIPGLO) assay) and 2400 nM at human DGKζ (DGKζ liposome (LIPGLO) assay).
As for `CC[C@H]1CN(C(c2ccc(F)cc2)c2ccc(C(F)(F)F)cn2)[C@H](CC)CN1c1cc(=O)n(C)c2ccc(C#N)nc12` (stereo partly drawn) [Example 1039], in the assay with Human venous whole blood (setting [2]), the EC50 was 91 nM. Besides, the IC50 amounted to 110 nM at human DGKα (liposome (LIPGLO) assay) and 87 nM at human DGKζ (liposome (LIPGLO) assay).
As to `C[C@@H]1CN(c2cc(=O)n(C)c3ccc(C#N)nc23)[C@@H](C)CN1C(c1ccc(F)cc1)c1cc(F)ccn1` (single isomer, unassigned) [Example 473], in the assay on Human venous whole blood (setting [4]), the EC50 was 880 nM. Moreover, the IC50 was found to be 1700 nM at human DGKα (liposome (LIPGLO) assay) and 4000 nM on human DGKζ (liposome (LIPGLO) assay).
Take `CC[C@H]1CN(C(c2ccc(F)cc2)c2ccc(C#N)cc2)[C@H](COC)CN1c1cc(=O)n(C)c2ccc(C#N)nc12` (single isomer, unassigned) [Example 1171]: in the assay on Human venous whole blood (setting [4]), the EC50 was found to be 170 nM. The values for the IC50 on human DGKα (liposome (LIPGLO) assay) and on human DGKζ (liposome (LIPGLO) assay) were 1500 nM and 350 nM, respectively.

The values above are taken from patent publication US10669272B2, “Substituted naphthyridinone compounds useful as T cell activators” (BRISTOL-MYERS SQUIBB COMPANY, priority 2018, dated 2020).
